Experimental data as given in PubChem BioAssay AID206 (DTP/NCI, 2004).
Values joined by “and” are separate entries in the source; they are usually repeats but may differ in a detail not shown here. Equal entries are not always repeated. Results filed as inconclusive are left out.

Test system: nude mice, HT29 intrarenal xenograft, tumor weight T/C
Test: NCI In Vivo Anticancer Drug Screen. Data for tumor model HT29;CX-1 Human Adenocarcinoma (MER+) (intrarenal inoculation) in NU/NU Swiss (nude) mice
Details: endpoint: mean tumor weight change, higher = larger tumour
Outline: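 Readout: treated/vehicle-control ratio of the measured endpoint (tumor size or survival) in transplanted-tumor mice.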

[1] = dose: 300.0 mg/kg/injection, schedule: Q04DX004 (sc), vehicle: saline with Tween-80
[2] = dose: 600.0 mg/kg/injection, schedule: Q04DX004 (sc), vehicle: saline with Tween-80
[3] = dose: 75.0 mg/kg/injection, schedule: Q04DX004 (sc), vehicle: saline with Tween-80
[4] = dose: 150.0 mg/kg/injection, schedule: Q04DX004 (sc), vehicle: saline with Tween-80
[5] = dose: 50.0 mg/kg/injection, schedule: Q04DX004 (sc), vehicle: saline with Tween-80
[6] = dose: 100.0 mg/kg/injection, schedule: Q04DX004 (sc), vehicle: saline with Tween-80
[7] = dose: 200.0 mg/kg/injection, schedule: Q04DX004 (sc), vehicle: saline with Tween-80
[8] = dose: 75.0 mg/kg/injection, schedule: Q04DX004 (sc), vehicle: Klucel (hydroxypropylcellulose) (HPC)

With `CC[C@]1(O)C[C@H]2CN(CCc3c([nH]c4ccccc34)[C@@](C(=O)OC)(c3cc4c(cc3OC)N(C)[C@H]3[C@@](O)(C(=O)OC)[C@H](OC(C)=O)[C@]5(CC)C=CCN6CC[C@]43[C@@H]65)C2)C1` the T/C (dose: 0.25 mg/kg/injection, schedule: Q01DX010 (sc), vehicle: saline) was 76 % of control, the T/C (dose: 0.5 mg/kg/injection, schedule: Q01DX010 (sc), vehicle: saline) was 88 % of control and the T/C (dose: 1.0 mg/kg/injection, schedule: Q01DX010 (sc), vehicle: saline) was 60 % of control.
For `OCCN1CCN(CCCN2c3ccccc3Sc3ccc(C(F)(F)F)cc32)CC1`, the T/C (dose: 1.25 mg/kg/injection, schedule: Q01DX010 (sc), vehicle: saline) was 121 % of control, the T/C (dose: 2.5 mg/kg/injection, schedule: Q01DX010 (sc), vehicle: saline) was 58 % of control and the T/C (dose: 5.0 mg/kg/injection, schedule: Q01DX010 (sc), vehicle: saline) was 118 % of control. For the same compound, the T/C (dose: 10.0 mg/kg/injection, schedule: Q01DX010 (sc), vehicle: saline) was 92 % of control.
With `CC(=O)[C@]1(O)Cc2c(O)c3c(c(O)c2[C@@H](OC2CC(N)C(O)C(C)O2)C1)C(=O)c1c(O)cccc1C3=O` (stereo not given in full) the T/C (dose: 0.63 mg/kg/injection, schedule: Q04DX004 (sc), vehicle: saline) was 50 % of control and the T/C (dose: 1.25 mg/kg/injection, schedule: Q04DX004 (sc), vehicle: saline) was 68 % of control.
`CCCCNCCCNCCCNC(=O)c1csc(-c2csc(CCNC(=O)C(NC(=O)C(C)C(O)C(C)NC(=O)C(NC(=O)c3nc(C(CC(N)=O)NCC(N)C(N)=O)nc(N)c3C)C(OC3OC(CO)C(O)C(O)C3OC3OC(CO)C(O)C(OC(N)=O)C3O)c3cnc[nH]3)C(C)O)n2)n1` (stereo not given) was tested, and the T/C (dose: 8.0 mg/kg/injection, schedule: Q01DX010 (sc), vehicle: saline) was 69 % of control and 83 % of control, the T/C (dose: 16.0 mg/kg/injection, schedule: Q01DX010 (sc), vehicle: saline) was 76 % of control and 80 % of control and the T/C (dose: 32.0 mg/kg/injection, schedule: Q01DX010 (sc), vehicle: saline) was 66 % of control and 68 % of control. The T/C (dose: 64.0 mg/kg/injection, schedule: Q01DX010 (sc), vehicle: saline) was 23 % of control and 25 % of control.
For `CN(C=O)C(C(=O)Nc1cccc2c(OC(=O)C(N(C)C=O)(N(C)C=O)N(C)C=O)c(N=Nc3ccc(S(=O)(=O)Nc4nccs4)cc3)cc(N=Nc3ccc(S(=O)(=O)Nc4nccs4)cc3)c12)(N(C)C=O)N(C)C=O` (tested in a mixture with another compound), the T/C [1] was 91 % of control, the T/C [2] was 103 % of control and the T/C (dose: 1200.0 mg/kg/injection, schedule: Q04DX004 (sc), vehicle: saline with Tween-80) was 80 % of control.
`CO[C@@H]1[C@H](O)CC[C@]2(CO2)[C@H]1[C@@]1(C)O[C@@H]1CC=C(C)C` was tested, and the T/C [3] was 108 % of control, the T/C [4] was 179 % of control and the T/C [1] was 108 % of control. The T/C [2] was 110 % of control.
`CN(C)c1nc(N(C)C)nc(N(C)C)n1` was tested, and the T/C (dose: 15.0 mg/kg/injection, schedule: Q01DX010 (sc), vehicle: saline with Tween-80) was 90 % of control and the T/C (dose: 30.0 mg/kg/injection, schedule: Q01DX010 (sc), vehicle: saline with Tween-80) was 81 % of control and 101 % of control and 222 % of control.
In the case of `Nc1nc2ccc(NCc3ccc(C(=O)NC(CCC(=O)O)C(=O)O)cc3)cc2c(=O)[nH]1` (stereo not given), the T/C [5] is reported as 36 % of control, the T/C [6] is reported as 46 % of control and 50 % of control and the T/C [7] is reported as 16 % of control and 29 % of control.
With `Nc1ncn(C2CC(O)C(CO)O2)c(=O)n1` (stereo not given) the T/C (dose: 0.2 mg/kg/injection, schedule: Q01DX010 (sc), vehicle: saline) was 84 % of control.
For `Nc1ncnc2c1nnn2C1OC(CO)C(O)C1O` (stereo not given), the T/C [8] was 41 % of control.
With `CCOC(=O)CNC(=O)Sc1ccc(C(C)(C)C)cc1` the T/C (dose: 300.0 mg/kg/injection, schedule: Q04DX003 (sc), vehicle: Klucel (hydroxypropylcellulose) (HPC)) was 98 % of control, the T/C (dose: 600.0 mg/kg/injection, schedule: Q04DX003 (sc), vehicle: Klucel (hydroxypropylcellulose) (HPC)) was 113 % of control and the T/C (dose: 1200.0 mg/kg/injection, schedule: Q04DX003 (sc), vehicle: Klucel (hydroxypropylcellulose) (HPC)) was 44 % of control. The T/C (dose: 2400.0 mg/kg/injection, schedule: Q04DX003 (sc), vehicle: Klucel (hydroxypropylcellulose) (HPC)) was 103 % of control.
In the case of `CCC(C)Nc1ccc(N)cc1` (stereo not given), the T/C (dose: 2.25 mg/kg/injection, schedule: Q04DX004 (sc), vehicle: Klucel (hydroxypropylcellulose) (HPC)) is reported as 64 % of control, the T/C (dose: 4.5 mg/kg/injection, schedule: Q04DX004 (sc), vehicle: Klucel (hydroxypropylcellulose) (HPC)) is reported as 64 % of control and the T/C (dose: 9.0 mg/kg/injection, schedule: Q04DX004 (sc), vehicle: Klucel (hydroxypropylcellulose) (HPC)) is reported as 101 % of control.
In the case of `C[Si](C)(CCl)N[Si](C)(C)CCl`, the T/C [3] is reported as 91 % of control, the T/C [4] is reported as 84 % of control and the T/C [1] is reported as 101 % of control. The T/C [2] was 78 % of control.
For `CC(C)NCC(O)COc1ccc(O)c(O)c1` (stereo not given), the T/C (dose: 3.0 mg/kg/injection, schedule: Q04DX004 (sc), vehicle: saline) was 107 % of control, the T/C (dose: 6.0 mg/kg/injection, schedule: Q04DX004 (sc), vehicle: saline) was 103 % of control and the T/C (dose: 12.0 mg/kg/injection, schedule: Q04DX004 (sc), vehicle: saline) was 164 % of control.
For `CCN(C)N=Nc1ccc(C(N)=O)cc1`, the T/C [8] was 92 % of control and the T/C (dose: 150.0 mg/kg/injection, schedule: Q04DX004 (sc), vehicle: Klucel (hydroxypropylcellulose) (HPC)) was 68 % of control.
With `CC1CN1P1(N2CC2C)=NP(N2CC2C)(N2CC2C)=NP(N2CC2C)(N2CC2C)=N1` (stereo not given) the T/C (dose: 50.0 mg/kg/injection, schedule: Q01DX010 (sc), vehicle: saline) was 79 % of control and the T/C (dose: 100.0 mg/kg/injection, schedule: Q01DX010 (sc), vehicle: saline) was 101 % of control.
With `Cc1[nH]c(=O)[nH]c(=O)c1N(CCF)CCCl` the T/C (dose: 10.0 mg/kg/injection, schedule: Q01DX010 (sc), vehicle: Klucel (hydroxypropylcellulose) (HPC)) was 117 % of control, the T/C (dose: 20.0 mg/kg/injection, schedule: Q01DX010 (sc), vehicle: Klucel (hydroxypropylcellulose) (HPC)) was 95 % of control and the T/C (dose: 40.0 mg/kg/injection, schedule: Q01DX010 (sc), vehicle: Klucel (hydroxypropylcellulose) (HPC)) was 48 % of control.
`O=C(O)C1CC(c2ccccc2)=NN1c1ccccc1` (stereo not given) was tested, and the T/C (dose: 75.0 mg/kg/injection, schedule: Q04DX004 (sc), vehicle: water) was 76 % of control, the T/C (dose: 150.0 mg/kg/injection, schedule: Q04DX004 (sc), vehicle: water) was 79 % of control and the T/C (dose: 300.0 mg/kg/injection, schedule: Q04DX004 (sc), vehicle: water) was 74 % of control.
`COC1CC(C)C(OC)c2cc(O)cc(c2O)NC(=O)/C(C)=C/C=C\C(C)C(OC(N)=O)/C(C)=C\C(C)C1OC` (stereo not given) was tested, and the T/C (dose: 50.0 mg/kg/injection, schedule: Q04DX004 (sc), vehicle: saline + alcohol) was 113 % of control.
With `CN(C)/N=N/c1nc[nH]c1C(N)=O` the T/C (dose: 100.0 mg/kg/injection, schedule: Q01DX010 (sc), vehicle: Klucel (hydroxypropylcellulose) (HPC)) was 90 % of control and 109 % of control and the T/C (dose: 400.0 mg/kg/injection, schedule: Q01DX010 (sc), vehicle: Klucel (hydroxypropylcellulose) (HPC)) was 77 % of control.
`COc1ccc2c(c1)CCn1c(C)c(COC(=O)NC(C)C)c(COC(=O)NC(C)C)c1-2` was tested, and the T/C (dose: 300.0 mg/kg/injection, schedule: Q04DX004 (sc), vehicle: distilled water + Tween-80) was 165 % of control and the T/C (dose: 600.0 mg/kg/injection, schedule: Q04DX004 (sc), vehicle: distilled water + Tween-80) was 191 % of control.
For `O=C(Nc1cccc2c(OC(=O)C(Cl)Cl)c(N=Nc3ccc(S(=O)(=O)Nc4nccs4)cc3)cc(N=Nc3ccc(S(=O)(=O)Nc4nccs4)cc3)c12)C(Cl)Cl` (tested in a mixture with another compound), the T/C [5] was 78 % of control, the T/C [6] was 94 % of control and the T/C [7] was 58 % of control. The T/C (dose: 400.0 mg/kg/injection, schedule: Q04DX004 (sc), vehicle: saline with Tween-80) was 56 % of control.
For `CC(=O)c1c(O)c(C)c(O)c2c1OC1=CC(=O)C(C(C)=O)C(=O)C12C` (stereo not given), the T/C (dose: 300.0 mg/kg/injection, schedule: Q04DX004 (sc), vehicle: sodium bicarbonate) was 104 % of control, the T/C (dose: 600.0 mg/kg/injection, schedule: Q04DX004 (sc), vehicle: sodium bicarbonate) was 91 % of control and the T/C (dose: 800.0 mg/kg/injection, schedule: Q01DX010 (sc), vehicle: sodium bicarbonate) was 3 % of control and 9 % of control.
`CCCC(=O)Oc1ccc(/C=N/NC(N)=S)nc1` was tested, and the T/C (dose: 100.0 mg/kg/injection, schedule: Q01DX010 (sc), vehicle: saline with Tween-80) was 182 % of control and the T/C (dose: 200.0 mg/kg/injection, schedule: Q01DX010 (sc), vehicle: saline with Tween-80) was 168 % of control.
